This test deals with T1, hFXR (Homo sapiens, UniProt Q96RI1).
T1 construct: expressed in transfected cells; host or cells: CV-1 cells
T1 sequence (Q96RI1 1-486): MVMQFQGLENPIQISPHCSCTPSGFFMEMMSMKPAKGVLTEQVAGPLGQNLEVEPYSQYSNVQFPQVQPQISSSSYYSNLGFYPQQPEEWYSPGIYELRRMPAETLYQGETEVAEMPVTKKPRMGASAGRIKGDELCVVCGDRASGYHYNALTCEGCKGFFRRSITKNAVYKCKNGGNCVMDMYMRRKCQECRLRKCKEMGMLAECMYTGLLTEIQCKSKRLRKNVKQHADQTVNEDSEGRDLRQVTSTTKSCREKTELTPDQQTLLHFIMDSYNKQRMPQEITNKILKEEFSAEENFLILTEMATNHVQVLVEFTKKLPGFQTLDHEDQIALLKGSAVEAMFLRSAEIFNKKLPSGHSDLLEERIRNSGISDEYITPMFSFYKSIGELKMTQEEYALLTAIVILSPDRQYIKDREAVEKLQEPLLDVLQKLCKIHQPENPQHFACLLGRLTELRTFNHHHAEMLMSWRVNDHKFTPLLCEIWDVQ
T1 sequence (P19793 1-462 partner): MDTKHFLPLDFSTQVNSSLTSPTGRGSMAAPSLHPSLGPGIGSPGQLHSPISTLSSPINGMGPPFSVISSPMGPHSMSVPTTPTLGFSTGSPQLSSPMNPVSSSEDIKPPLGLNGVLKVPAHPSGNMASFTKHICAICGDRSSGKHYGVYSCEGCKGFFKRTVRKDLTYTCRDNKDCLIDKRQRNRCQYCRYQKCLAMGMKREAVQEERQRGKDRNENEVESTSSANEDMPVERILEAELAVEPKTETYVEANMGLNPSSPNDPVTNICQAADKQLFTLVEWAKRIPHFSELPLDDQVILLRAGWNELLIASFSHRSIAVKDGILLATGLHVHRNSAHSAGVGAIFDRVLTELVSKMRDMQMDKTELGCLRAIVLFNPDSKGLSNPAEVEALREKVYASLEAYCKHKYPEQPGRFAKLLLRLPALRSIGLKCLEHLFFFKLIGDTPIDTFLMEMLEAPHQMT
Description: In Vitro FXR Assay (TK). The class given is cell-based. To be noted: CV-1 cells transfected with hFXR, hRXR, TK-ECRE-luc and pCMX-YFP; compounds incubated 18 hrs; luminescence. Put shortly:
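Cells are seeded in charcoal double-stripped FBS medium, transfected overnight with FXR/RXR expression and ECRE-driven luciferase reporter plasmids, then treated with serially diluted compounds for 18 h. Lysates are measured for luciferase light output.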

pEC50: −log10 of the molar value. Bounds are passed on as bounds.

As a reminder, the pEC50 is −log10 of the EC50, conventionally taken in molar units. As to `COc1ccc(-c2ccc(CN(C(=O)CC(C)(C)C)c3nccc4cc(N5CCC(CO)C5)ccc34)cc2)cc1C` (stereo not shown) [Compound 6.16, N-(6-(3-(Hydroxymethyl)pyrrolidin-1-yl)isoquinolin-1-yl)-N-((4′-methoxy-3′-methyl-[1,1′-biphenyl]-4-yl)methyl)-3,3-dimethylbutanamide], the pEC50 was at least 6.00. `COc1ccc(-c2ccc(CN(C(=O)CC(C)(C)C)c3nccc4cc(O)ccc34)cc2)cc1C` [Compound 7, N-(6-Hydroxyisoquinolin-1-yl)-N-((4′-methoxy-3′-methyl-[1,1′-biphenyl]-4-yl)methyl)-3,3-dimethylbutanamide] gave a pEC50 of at least 6.00. For `COCc1ccc2c(N(Cc3ccc(-c4ccc(OC)c(C)c4)cc3)C(=O)CC(C)(C)C)nccc2c1` [Compound 9.03, N-((4′-Methoxy-3′-methyl-[1,1′-biphenyl]-4-yl)methyl)-N-(6-(methoxymethyl)isoquinolin-1-yl)-3,3-dimethylbutanamide], the pEC50 is at least 6.00. As for `COc1ccc(-c2ccc(CN(C(=O)CC(C)(C)C)c3nccc4cc(N5CCC(CCO)C5)ccc34)cc2)cc1C` (stereo not shown) [Compound 6.14, N-(6-(3-(2-Hydroxyethyl)pyrrolidin-1-yl)isoquinolin-1-yl)-N-((4′-methoxy-3′-methyl-[1,1′-biphenyl]-4-yl)methyl)-3,3-dimethylbutanamide], the pEC50 is at least 6.00. With `COc1ccc(-c2ccc(CN(C(=O)CC(C)(C)C)c3nccc4cc(OC5CN(C)C5)ccc34)cc2)cc1C` [Compound 30, N-((4′-Methoxy-3′-methyl-[1,1′-biphenyl]-4-yl)methyl)-3,3-dimethyl-N-(6-((1-methylazetidin-3-yl)oxy)isoquinolin-1-yl)butanamide], the pEC50 was below 5.00. To `COc1ccc(-c2ccc(CN(C(=O)CC(C)(C)C)c3nccc4cc(OCCCN(C)C)ccc34)cc2)cc1C` [Compound 8.12, N-(6-(3-(Dimethylamino)propoxy)iso-quinolin-1-yl)-N-((4′-methoxy-3′-methyl-[1,1′-biphenyl]-4-yl)methyl)-3,3-dimethylbutanamide] belongs 5.00 to 6.00. Then `COc1ccc(-c2ccc(CN(C(=O)CC(C)(C)C)c3nccc4cc(N5CCC(O)C5)cnc34)cc2)cc1C` (stereo not shown) [Compound 6.2, N-(3-(3-Hydroxypyrrolidin-1-yl)-1,7-naphthyridin-8-yl)-N-((4′-methoxy-3′-methyl-[1,1′-biphenyl]-4-yl)methyl)-3,3-dimethylbutanamide], with at least 6.00; and `COc1ccc(-c2ccc(CN(C(=O)CC(C)(C)C)c3nccc4cc(C(C)O)ccc34)cc2)cc1C` (stereo not shown) [Compound 26, N-(6-(1-Hydroxyethyl)isoquinolin-1-yl)-N-((4′-methoxy-3′-methyl-[1,1′-biphenyl]-4-yl)methyl)-3,3-dimethylbutanamide], with at least 6.00. In the case of `COc1ccc(-c2ccc(CN(C(=O)CC(C)(C)C)c3nccc4cc(-c5ccccn5)ccc34)cc2)cc1C` [Compound 16, N-((4′-Methoxy-3′-methyl-[1,1′-biphenyl]-4-yl)methyl)-3,3-dimethyl-N-(6-(pyridin-2-yl)isoquinolin-1-yl)butanamide], the pEC50 was at least 6.00.

In turn, `COc1ccc(-c2ccc(CN(C(=O)CC(C)(C)C)c3nccc4cc(OCC(C)CO)ccc34)cc2)cc1C` (stereo not shown) [Compound 10, N-(6-(3-Hydroxy-2-methylpropoxy)isoquinolin-1-yl)-N-((4′-methoxy-3′-methyl-[1,1′-biphenyl]-4-yl)methyl)-3,3-dimethylbutanamide] gave a pEC50 of at least 6.00.

In the case of `CNC(=O)COc1ccc2c(N(Cc3ccc(-c4ccc(OC)c(C)c4)cc3)C(=O)CC(C)(C)C)nccc2c1` [Compound 8.01, N-((4′-Methoxy-3′-methyl-[1,1′-biphenyl]-4-yl)methyl)-3,3-dimethyl-N-(6-(2-(methylamino)-2-oxoethoxy)isoquinolin-1-yl)butanamide], the negative-log EC50 (pEC50) is 5.00 to 6.00. Consider `COc1ccc2c(N(Cc3ccc(-c4ccc(OC)c(C)c4)cc3CO)C(=O)CC(C)(C)C)nccc2c1` [Compound 21, N-((3-(Hydroxymethyl)-4′-methoxy-3′-methyl-[1,1′-biphenyl]-4-yl)methyl)-N-(6-methoxyisoquinolin-1-yl)-3,3-dimethylbutanamide], for which the pEC50 is 5.00 to 6.00. The compound `COc1ccc(-c2ccc(CN(C(=O)CC(C)(C)C)c3nccc4cc(N5CCCCC5)ccc34)cc2)cc1C` [Compound 6.07, N-((4′-Methoxy-3′-methyl-[1,1′-biphenyl]-4-yl)methyl)-3,3-dimethyl-N-(6-(piperidin-1-yl)isoquinolin-1-yl)butanamide] gave a pEC50 of at least 6.00. With `COc1ccc(-c2ccc(CN(C(=O)CC(C)(C)C)c3nccc4cc(OC(C)CO)ccc34)cc2)cc1C` (stereo not shown) [Compound 31, N-(6-((1-Hydroxypropan-2-yl)oxy)isoquinolin-1-yl)-N-((4′-methoxy-3′-methyl-[1,1′-biphenyl]-4-yl)methyl)-3,3-dimethylbutanamide], the pEC50 was at least 6.00. To `COc1ccc(-c2ccc(CN(C(=O)CC(C)(C)C)c3nccc4cc(N(C)CCO)ccc34)cc2)cc1C` [Compound 6.01, N-(6-((2-Hydroxyethyl)(methyl)amino)iso-quinolin-1-yl)-N-((4′-methoxy-3′-methyl-[1,1′-biphenyl]-4-yl)methyl)-3,3-dimethylbutanamide] belongs at least 6.00; to `COc1ccc([C@H]2CC[C@H](CN(C(=O)CC(C)(C)C)c3nccc4cc(CO)ccc34)CC2)cc1C` [Compound 2, N-(6-(Hydroxymethyl)isoquinolin-1-yl)-N-((trans-4-(4-methoxy-3-methylphenyl)cyclohexyl)methyl)-3,3-dimethylbutanamide], at least 6.00; to `COc1ccc(-c2ccc(CN(C(=O)CC(C)(C)C)c3nccc4cccnc34)cc2)cc1C` [Compound 4.09, N-((4′-Methoxy-3′-methyl-[1,1′-biphenyl]-4-yl)methyl)-3,3-dimethyl-N-(1,7-naphthyridin-8-yl)butanamide], at least 6.00. As to `COc1ccc(-c2ccc(CN(C(=O)CC(C)(C)C)c3nccc4cc(OCCC(C)O)ccc34)cc2)cc1C` (stereo not shown) [Compound 10.03, N-(6-(3-Hydroxybutoxy)isoquinolin-1-yl)-N-((4′-methoxy-3′-methyl-[1,1′-biphenyl]-4-yl)methyl)-3,3-dimethylbutanamide], the pEC50 was at least 6.00. In turn, `COc1ccc(-c2ccc(CN(C(=O)CC(C)(C)C)c3nccc4cc(-c5ncco5)ccc34)cc2)cc1C` [Compound 14, N-((4′-Methoxy-3′-methyl-[1,1′-biphenyl]-4-yl)methyl)-3,3-dimethyl-N-(6-(oxazol-2-yl)isoquinolin-1-yl)butanamide] had a negative logarithm of the EC50 (pEC50) of at least 6.00. Compound `COc1ccc(-c2ccc(CN(C(=O)CC(C)(C)C)c3nccc4cc(CCO)ccc34)cc2)cc1C` [Compound 25, N-(6-(2-Hydroxyethyl)isoquinolin-1-yl)-N-((4′-methoxy-3′-methyl-[1,1′-biphenyl]-4-yl)methyl)-3,3-dimethylbutanamide] gave a negative-log EC50 (pEC50) of at least 6.00. Then `COc1ccc(-c2ccc(CN(C(=O)CC(C)(C)C)c3nccc4cc(C(=O)N(C)C)ccc34)cc2)cc1C` [Compound 19, 1-(N-((4′-Methoxy-3′-methyl-[1,1′-biphenyl]-4-yl)methyl)-3,3-dimethylbutanamido)-N,N-dimethylisoquinoline-6-carboxamide], with at least 6.00; and `COc1ccc(-c2ccc(CN(C(=O)CC(C)(C)C)c3nccc4ccc(C#N)cc34)cc2)cc1C` [Compound 13, N-(7-Cyanoisoquinolin-1-yl)-N-((4′-methoxy-3′-methyl-[1,1′-biphenyl]-4-yl)methyl)-3,3-dimethylbutanamide], with 5.00 to 6.00; and `COc1ccc(-c2ccc(CN(C(=O)CC(C)(C)C)c3ccnc4ccccc34)cc2)cc1C` [Compound 4.08, N-((4′-Methoxy-3′-methyl-[1,1′-biphenyl]-4-yl)methyl)-3,3-dimethyl-N-(quinolin-4-yl)butanamide], with below 5.00.

`COC(=O)Nc1ccc2c(N(Cc3ccc(-c4ccc(OC)c(C)c4)cc3)C(=O)CC(C)(C)C)nccc2c1` [Compound 6.21, Methyl (l-(N-((4′-methoxy-3′-methyl-[1,1′-biphenyl]-4-yl)methyl)-3,3-dimethylbutanamido)isoquinolin-6-yl)carbamate] had a pEC50 of at least 6.00. The compound `COc1ccc(-c2ccc(CN(C(=O)CC(C)(C)C)c3cccc4cnccc34)cc2)cc1C` [Compound 5.01, N-(Isoquinolin-5-yl)-N-((4′-methoxy-3′-methyl-[1,1′-biphenyl]-4-yl)methyl)-3,3-dimethylbutanamide] gave a pEC50 below 5.00.

The values are drawn from patent US20200131132A1, “FARNESOID X RECEPTOR AGONISTS AND USES THEREOF” (Metacrine, Inc., priority 2017, published 2020).
